According to PMC11973094, “Formononetin and mizoribine inhibit Porcine Reproductive and Respiratory Syndrome Virus replication in vitro” (Frontiers in Nutrition, 2025):

What was measured:
Marc-145 cells = assay: Cytotoxicity (CC50) by CCK-8 assay in Marc-145 cells; type: cell-based; settings: for Non-cytotoxic concentrations: Marc-145 and PAM cells, treatment durations shorter than 48 h
Method: Cells were treated in a 96-well plate using DMEM supplemented with 8% FBS. After achieving a monolayer formation, the cells were treated with multiple concentrations of the test compound, which were diluted in DMEM containing 2% FBS and added to six replicate wells. As a control, a blank solution consisting of 0.5% DMSO in DMEM was employed. […] Subsequently, the half-maximal cytotoxic concentrations (CC50) was measured following the protocol described in section 2.2 of our previous work ([18]). […] EC50 was determined by assessing PRRSV genomic expression levels after three freeze–thaw cycles, and results were plotted using GraphPad Prism 8.
(§1) Figure 2 Evaluating the cytotoxicity of FMN and MZR on Marc-145 and PAM Cells. (A,B) CC50 values for FMN in Marc-145 cells at 48 and 72 h, determined via the CCK-8 assay. (C,D) CC50 of FMN in PAM cells assessed at 48 and 72 h. (E,F) CC50 values for MZR in Marc-145 cells at 48 and 72 h. (G,H) CC50 for MZR in PAM cells, also measured at 48 and 72 h. (I) The antiviral activity of FMN against the PRRSV VR-2332 strain, evaluated via IFA. (J) Antiviral effectiveness of MZR against the VR-2332 strain, assessed using IFA. Control samples were treated with a matching volume of 0.4% DMSO in DMEM. Black dots within the figure symbolize individual data points from each independent experiment. IFA images are from three experimental replicates.

[1] = Cytotoxicity (CC50) by CCK-8 assay in PAM cells; type: cell-based, Porcine; settings: pig
Method: (§2) Cells were treated in a 96-well plate using DMEM supplemented with 8% FBS. After achieving a monolayer formation, the cells were treated with multiple concentrations of the test compound, which were diluted in DMEM containing 2% FBS and added to six replicate wells. As a control, a blank solution consisting of 0.5% DMSO in DMEM was employed. The cells treated with the compound were incubated at 37°C in a humidified atmosphere with 5% CO2 for 48 or 72 h. Subsequently, the half-maximal cytotoxic concentrations (CC50) was measured following the protocol described in section 2.2 of our previous work ([18]). […] EC50 was determined by assessing PRRSV genomic expression levels after three freeze–thaw cycles, and results were plotted using GraphPad Prism 8.
as §1

PAM cells = assay: Cytotoxicity (CC50) by CCK-8 assay in PAM cells; type: cell-based, Porcine
Method: as §2, §1

PRRSV VR-2332 strain [2] = assay: Antiviral EC50 against PRRSV VR-2332 in PAM cells (PRRSV genomic expression); type: cell-based; settings: Porcine reproductive and respiratory syndrome virus
Method: (§3) Viral solutions were diluted in a 10-fold gradient. Aliquots of solutions containing varying concentrations of the virus (100 μL each) and DMEM with 2% FBS (100 μL) were added to each well. Add 100 μL of 2% FBS DMEM (without PRRSV) to the control wells. The plates were incubated for 4 days at 37°C in a humidified atmosphere with 5% CO2, after which the virus TCID50 values were calculated using the Reed and Muench formula. To evaluate PRRSV gene expression, we employed the relative quantitative Reverse Transcription Quantitative Polymerase Chain Reaction (qRT-PCR) technique. The resultant data were processed using Design & Analysis Software (Thermo, version 2.6.0) and normalized based on the 2^−ΔΔCt method. For the determination of viral copy numbers, absolute quantitative qRT-PCR was utilized, with sample normalization achieved by quantifying plasmid concentrations prior to the detection process. The specific methods are as described in section 2.4 of our previous paper ([18]). The upstream and downstream primers were: PRRSV 5’-[…]’ and 5’-[…]-3′; Marc-145-GAPDH 5’-[…]-3′ and 5’-[…]-3′; PAM-GAPDH 5’-TCTGGCAAAGTGGACATT-3′ and 5’-[…]-3′.
(§4) Cells were treated in a 96-well plate using DMEM supplemented with 8% FBS. After achieving a monolayer formation, the cells were treated with multiple concentrations of the test compound, which were diluted in DMEM containing 2% FBS and added to six replicate wells. As a control, a blank solution consisting of 0.5% DMSO in DMEM was employed. The cells treated with the compound were incubated at 37°C in a humidified atmosphere with 5% CO2 for 48 or 72 h. Subsequently, the half-maximal cytotoxic concentrations (CC50) was measured following the protocol described in section 2.2 of our previous work ([18]). For the determination of the half-maximal effective concentration (EC50), each concentration was tested in triplicate wells, using 0.4% DMSO as a blank control. EC50 was determined by assessing PRRSV genomic expression levels after three freeze–thaw cycles, and results were plotted using GraphPad Prism 8.

PRRSV VR-2332 strain [3] = assay: Antiviral EC50 against PRRSV VR-2332 in Marc-145 cells (PRRSV genomic expression); type: cell-based; settings: Porcine reproductive and respiratory syndrome virus, MARC145, VR-2332 strain
Method: as §3, §4

PRRSV VR-2332 strain [4] = assay: Viral titer (TCID50) and viral genome (qRT-PCR) of VR-2332 after 36-h incubation with the compounds; type: cell-based, Porcine Reproductive and Respiratory Syndrome Virus; settings: for Correlation of concentration with relative expression of the PRRSV genome / Correlation of concentration with viral titer: 36-h incubation, linear fit slope m negative; for Concentrations effectively suppressing viral replication: dose-dependent inhibition
Method: as §3
Figure 3 Assessing the antiviral potency of FMN and MZR on PRRSV. This figure delineates the evaluation of FMN and MZR at varying concentrations for their antiviral effects on the VR-2332 strain. (A,C) Display the EC50 of FMN in PAM and Marc-145 cells, respectively. (B,D) Illustrate the EC50 of MZR in PAM and Marc-145 cells. (E,F) Show alterations in the viral titers of the VR-2332 strain post 36-h incubation with distinct concentrations of FMN or MZR. (G,H) Represent the viral genome changes under similar conditions. Each point in the figure corresponds to raw data from individual experiments. Linear fit slopes are marked in red. Error bars indicate the mean ± SD. TEXT PRINTED IN THE PICTURE: (A) FMN: PAM: EC50: 8.716; PAM: EC90: 223.542 | (B) MZR: PAM: EC50: 8.274; PAM: EC90: 19.945 | (C) FMN: Marc-145: EC50: 16.863; Marc-145: EC90: 104.819 | (D) MZR: Marc-145: EC50: 22.335; Marc-145: EC90: 63.856

PRRSV VR-2332 strain [5] = assay: Indirect immunofluorescence assay (IFA) of VR-2332 in PAM cells; type: cell-based, Porcine Reproductive and Respiratory Syndrome Virus; settings: within the safety range
Method: The following antibodies were used for IFA: Mouse Anti-SR30 (Rtilab, SR30-A) and Goat Anti-Mouse FITC (Bioss, bs-0368G-FITC). After virus inoculation, cells were fixed with 80% cold acetone according to previous experimental conditions for IFA ([18]). A Leica DMI6000 microscope was used for observation.
as §1

PRRSV GSWW-18 strain = assay: Viral titer and gene expression of GSWW-18 strain in PAM cells; type: cell-based, Porcine Reproductive and Respiratory Syndrome Virus; settings: 36 h
Method: as §3
(§5) Figure 4 Inhibitory effects of FMN and MZR on GSWW-18 and GSWW-15 Strains. (A,C) Changes in PRRSV viral titers in PAM cells incubated with 20 μM of FMN or MZR for 36 h with the GSWW-18 strain. (B,D) Changes in PRRSV viral genome in PAM cells after 36 h of incubation with 20 μM of FMN or MZR with the GSWW-15 strain. The black dots in the figure represent the raw data from each independent experiment. p-values were calculated using one-way ANOVA with Dunnett’s multiple-comparison test. The p-value less than 0.03 was considered statistically significant. Error bars represent the mean ± SD.

PRRSV GSWW-15 strain = assay: Viral titer and gene expression of GSWW-15 strain in PAM cells; type: cell-based, Porcine Reproductive and Respiratory Syndrome Virus; settings: 36 h
Method: as §3, §5

PRRSV VR-2332 strain [6] = assay: Time-of-addition assay, Marc-145 cells infected with VR-2332 (MOI = 1); type: cell-based, Porcine Reproductive and Respiratory Syndrome Virus
From the text: The assay commenced with seeding cells into a 96-well plate, followed by their cultivation in DMEM supplemented with 8% FBS. Upon achieving a monolayer, the cells were infected with the VR-2332 strain of PRRSV at a multiplicity of infection (MOI) of 1. One hour after infection, the viral inoculum was discarded, and the cells were cleansed with ice-cold PBS. DMSO or various concentrations of FMN or MZR were then introduced to the culture at different time intervals, as depicted in Figure 1A. Thirty-six hours post-infection, the expression levels of PRRSV RNA were quantified using previously described methods.
Figure 1 Time-of-addition experiment with FMN or MZR. (A) This schematic diagram illustrates the classical experimental protocol for administering drugs at different time points. The experiment began with Marc-145 cells uniformly infected with VR-2332 (MOI = 1) at 0 h, followed by adding varying concentrations of FMN or MZR at specific times. (B,C) FMN or MZR was introduced at −4, 0, 2, 4, 8, and 16 h to examine their impact on various stages of PRRSV replication. All samples were collected for analysis 36 h post-infection. The colors of the bars in the figure correspond to the time points as detailed in (A). Each symbol represents an independent biological replicate. The p-values are indicated, with ‘ns’ denoting p > 0.1234. These values were calculated using one-way ANOVA with Dunnett’s multiple-comparison test, and a p-value less than 0.0332 was considered statistically significant.

[7] = added 16 h after infection, P > 0.1234
[8] = added in the initial stages post-infection, collected 36 h post-infection
[9] = lower concentrations added 8 h post-infection, P > 0.1234

For `COc1ccc(-c2coc3cc(O)ccc3c2=O)cc1` [FMN, 7-hydroxy-3-(4-methoxyphenyl)-4H-chromen-4-one], the Non-cytotoxic concentrations (Marc-145 cells) was “below 100 μM”, the CC50 at 72 h ([1]; 72 h, printed in the picture of Figure 2D, no unit) was 52 µM and the CC50 at 72 h ([1]; 72 h exposure) was 52 µM. For the same compound, the Cytotoxicity (PAM cells; 48 h) was “non-toxic”, the EC50 (PRRSV VR-2332 strain [2]) was ~8.72 µM and the EC50 (PRRSV VR-2332 strain [2]; Figure 3, unit inferred) was 8.72 µM. The EC90 (PRRSV VR-2332 strain [2]; Figure 3, unit inferred) was 224 µM, the EC50 (PRRSV VR-2332 strain [3]) was ~16.9 µM and the EC50 (PRRSV VR-2332 strain [3]; Figure 3, unit inferred) was 16.9 µM. The EC90 (PRRSV VR-2332 strain [3]; Figure 3, unit inferred) was 105 µM, the “Correlation of concentration with relative expression of the PRRSV genome” value (PRRSV VR-2332 strain [4]) was “negatively correlated” and the “Correlation of concentration with viral titer” value (PRRSV VR-2332 strain [4]) was “negatively correlated”. For the same compound, the “Concentrations effectively suppressing viral replication” value (PRRSV VR-2332 strain [4]) was “above 20 μM”, the “Antiviral activity by IFA” value (PRRSV VR-2332 strain [5]) was “antiviral efficacy” and the Gene expression levels (PRRSV GSWW-18 strain) was “dose-dependent inverse relationship”. The Viral titers (PRRSV GSWW-18 strain) was “dose-dependent reduction”, the Gene expression levels (PRRSV GSWW-15 strain) was “dose-dependent inverse relationship” and the Viral titers (PRRSV GSWW-15 strain) was “dose-dependent reduction”. For the same compound, the “Effect on PRRSV replication (PRRSV RNA)” value (PRRSV VR-2332 strain [6]; [7]) was “entirely ineffective”, the “Effect on PRRSV replication (PRRSV RNA)” value (PRRSV VR-2332 strain [6]; [8]) was “pronounced antiviral activity” and the “Effect on PRRSV replication (PRRSV RNA)” value (PRRSV VR-2332 strain [6]; [9]) was “did not significantly impede PRRSV replication”.
In the case of `NC(=O)c1ncn([C@@H]2O[C@H](CO)[C@@H](O)[C@H]2O)c1O` [MZR, 1-[(2R,3R,4S,5R)-3,4-dihydroxy-5-(hydroxymethyl)oxolan-2-yl]-5-hydroxy-1H-imidazole-4-carboxamide, reference compound], the Non-cytotoxic concentrations (Marc-145 cells) is reported as “below 100 μM”, the Cytotoxicity (Marc-145 cells; Marc-145 cells, various concentrations, 48 and 72 h) is reported as “minimal cytotoxicity” and the Cytotoxicity (PAM cells; treatment up to 72 h) is reported as “negligible cytotoxicity”. For the same compound, the EC50 (PRRSV VR-2332 strain [2]) was ~8.27 µM, the EC50 (PRRSV VR-2332 strain [2]; Figure 3, unit inferred) was 8.27 µM and the EC90 (PRRSV VR-2332 strain [2]; Figure 3, unit inferred) was 19.9 µM. For the same compound, the EC50 (PRRSV VR-2332 strain [3]) was ~22.3 µM, the EC50 (PRRSV VR-2332 strain [3]; Figure 3, unit inferred) was 22.3 µM and the EC90 (PRRSV VR-2332 strain [3]; Figure 3, unit inferred) was 63.9 µM. The “Correlation of concentration with relative expression of the PRRSV genome” value (PRRSV VR-2332 strain [4]) was “negatively correlated”, the “Correlation of concentration with viral titer” value (PRRSV VR-2332 strain [4]) was “negatively correlated” and the “Concentrations effectively suppressing viral replication” value (PRRSV VR-2332 strain [4]) was “above 20 μM”. The “Antiviral activity by IFA” value (PRRSV VR-2332 strain [5]) was “antiviral efficacy”, the Gene expression levels (PRRSV GSWW-18 strain) was “dose-dependent inverse relationship” and the Viral titers (PRRSV GSWW-18 strain) was “dose-dependent reduction”. The Gene expression levels (PRRSV GSWW-15 strain) was “dose-dependent inverse relationship”, the Viral titers (PRRSV GSWW-15 strain) was “dose-dependent reduction” and the “Effect on PRRSV replication (PRRSV RNA)” value (PRRSV VR-2332 strain [6]; [7]) was “entirely ineffective”. For the same compound, the “Effect on PRRSV replication (PRRSV RNA)” value (PRRSV VR-2332 strain [6]; [8]) was “pronounced antiviral activity” and the “Effect on PRRSV replication (PRRSV RNA)” value (PRRSV VR-2332 strain [6]; [9]) was “did not significantly impede PRRSV replication”.
